Assay results published in patent US12077503B2, “Substituted cyclic amides and their use as herbicides” (FMC CORPORATION, priority 2015, dated 2024).

Experiments:
Assay type in all cases: in vivo
[1] = test system: barnyardgrass (Echinochloa crus-galli); test: Test B flooded paddy test; conditions: Flood, 250 g ai/ha; 0 to 100 scale where 0 is no effect and 100 is complete control; 13 to 15 d
In short: (§1)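 Evaluation by eye, against controls, occurred 13–15 d post-treatment in a greenhouse, using a 0 (no effect) to 100 (complete control) scale. Application was into the paddy water, 3 cm deep over the soil, on 2-leaf plants.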

[2] = test system: rice (Oryra sativa); test: Test B flooded paddy test; conditions: Flood, 250 g ai/ha; 0 to 100 scale where 0 is no effect and 100 is complete control; 13 to 15 d
In short: as §1

[3] = test system: ducksalad (Heteranthera limosa); test: Test B flooded paddy test; conditions: Flood, 250 g ai/ha; 0 to 100 scale where 0 is no effect and 100 is complete control; 13 to 15 d
In short: as §1

[4] = test system: sedge, umbrella (small-flower umbrella sedge, Cyperus difformis); test: Test B flooded paddy test; conditions: Flood, 250 g ai/ha; 0 to 100 scale where 0 is no effect and 100 is complete control; 13 to 15 d
In short: as §1

[5] = test system: barnyardgrass (Echinochloa crus-galli); test: Test A postemergence
In short: (§2)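 Compounds were formulated in a non-phytotoxic solvent mixture with surfactant and applied as a preemergence directed soil spray after seeding, or sprayed postemergence over plants 2 to 10 cm tall at the one- to two-leaf stage. Evaluation after about 10 d compared treated with untreated controls, using a scale from 0 (no effect) to 100 (complete control).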

[6] = test system: corn (Zea mays); test: Test A postemergence
In short: as §2

[7] = test system: blackgrass (Alopecurus myosuroides); test: Test A postemergence
In short: as §2

[8] = test system: ryegrass, Italian (Italian ryegrass, Lolium multiflorum); test: Test A postemergence
In short: as §2

[9] = test system: wheat (Triticum aestivum); test: Test A postemergence
In short: as §2

[10] = test system: ragweed (common ragweed, Ambrosia elatior); test: Test A postemergence
In short: as §2

[11] = test system: Galium (catchweed bedstraw, Galium aparine); test: Test A postemergence
In short: as §2

[12] = test system: Kochia (Kochia scoparia); test: Test A postemergence
In short: as §2

[13] = test system: giant foxtail (Setaria faberii); test: Test A postemergence
In short: as §2

[14] = test system: pigweed (Amaranthus retroflexus); test: Test A postemergence
In short: as §2

[15] = test system: barnyardgrass (Echinochloa crus-galli); test: Test A preemergence; conditions: Preemergence; for Plant response rating, Barnyardgrass: 125 g ai/ha, visual injury after approximately 10 d, 0 to 100 scale where 0 is no effect and 100 is complete control; for Barnyardgrass plant response rating (0 to 100 scale, 0 is no effect, 100 is complete control): 500 g ai/ha, visual injury approx. 10 d
In short: as §2

[16] = test system: ryegrass, Italian (Italian ryegrass, Lolium multiflorum); test: Test A preemergence; conditions: Preemergence; for Plant response rating, Ryegrass, Italian: 125 g ai/ha, visual injury after approximately 10 d, 0 to 100 scale where 0 is no effect and 100 is complete control; for Ryegrass, Italian plant response rating (0 to 100 scale, 0 is no effect, 100 is complete control): 500 g ai/ha, visual injury approx. 10 d
In short: as §2

[17] = test system: ragweed (common ragweed, Ambrosia elatior); test: Test A preemergence; conditions: Preemergence; for Plant response rating, Ragweed: 125 g ai/ha, visual injury after approximately 10 d, 0 to 100 scale where 0 is no effect and 100 is complete control; for Ragweed plant response rating (0 to 100 scale, 0 is no effect, 100 is complete control): 500 g ai/ha, visual injury approx. 10 d
In short: as §2

[18] = test system: Kochia (Kochia scoparia); test: Test A preemergence; conditions: Preemergence; for Plant response rating, Kochia: 125 g ai/ha, visual injury after approximately 10 d, 0 to 100 scale where 0 is no effect and 100 is complete control; for Kochia plant response rating (0 to 100 scale, 0 is no effect, 100 is complete control): 500 g ai/ha, visual injury approx. 10 d
In short: as §2

[19] = test system: giant foxtail (Setaria faberii); test: Test A preemergence; conditions: Preemergence; for Plant response rating, Foxtail, Giant: 125 g ai/ha, visual injury after approximately 10 d, 0 to 100 scale where 0 is no effect and 100 is complete control; for Foxtail, Giant plant response rating (0 to 100 scale, 0 is no effect, 100 is complete control): 500 g ai/ha, visual injury approx. 10 d
In short: as §2

[20] = test system: pigweed (Amaranthus retroflexus); test: Test A preemergence; conditions: Preemergence; for Plant response rating, Pigweed: 125 g ai/ha, visual injury after approximately 10 d, 0 to 100 scale where 0 is no effect and 100 is complete control; for Pigweed plant response rating (0 to 100 scale, 0 is no effect, 100 is complete control): 500 g ai/ha, visual injury approx. 10 d
[21] = 125 g ai/ha, postemergence, visual rating after approx. 10 d, 0 to 100 scale (0 no effect, 100 complete control)
[22] = Postemergence, 500 g ai/ha, 0 to 100 scale where 0 is no effect and 100 is complete control

CN1CC(c2c(F)cccc2F)C(C(=O)Nc2cccc(F)c2F)C1=O (stereo not drawn) [Compound 547]
Plant response rating, Barnyardgrass [1]: 0
Plant response rating, Rice [2]: 0
Plant response rating, Ducksalad [3]: 0
Plant response rating, Sedge, Umbrella [4]: 0
Plant response rating, Barnyardgrass [5, 21]: 70
Plant response rating, Barnyardgrass [5, 22]: 90
Plant response rating, Corn [6, 21]: 0
Plant response rating, Corn [6, 22]: 0
Plant response rating, Blackgrass [7, 21]: 0
Plant response rating, Blackgrass [7, 22]: 0
Plant response rating, Ryegrass, Italian [8, 21]: 0
Plant response rating, Ryegrass, Italian [8, 22]: 0
Plant response rating, Wheat [9, 21]: 0
Plant response rating, Wheat [9, 22]: 0
Plant response rating, Ragweed [10, 21]: 0
Plant response rating, Ragweed [10, 22]: 30
Plant response rating, Galium [11, 21]: 0
Plant response rating, Galium [11, 22]: 20
Plant response rating, Kochia [12, 21]: 0
Plant response rating, Kochia [12, 22]: 50
Plant response rating, Foxtail, Giant [13, 21]: 80
Plant response rating, Foxtail, Giant [13, 22]: 90
Plant response rating, Pigweed [14, 21]: 0
Plant response rating, Pigweed [14, 22]: 0
Plant response rating, Barnyardgrass [15]: 90
Barnyardgrass plant response rating (0 to 100 scale, 0 is no effect, 100 is complete control) [15]: 90
Plant response rating, Ryegrass, Italian [16]: 0
Ryegrass, Italian plant response rating (0 to 100 scale, 0 is no effect, 100 is complete control) [16]: 0
Plant response rating, Ragweed [17]: 0
Ragweed plant response rating (0 to 100 scale, 0 is no effect, 100 is complete control) [17]: 70
Plant response rating, Kochia [18]: 0
Kochia plant response rating (0 to 100 scale, 0 is no effect, 100 is complete control) [18]: 0
Plant response rating, Foxtail, Giant [19]: 90
Foxtail, Giant plant response rating (0 to 100 scale, 0 is no effect, 100 is complete control) [19]: 90
Plant response rating, Pigweed [20]: 0
Pigweed plant response rating (0 to 100 scale, 0 is no effect, 100 is complete control) [20]: 0

CC(C)Oc1cccc(C2CNC(=O)C2C(=O)Nc2ccccc2F)c1 (stereo not drawn) [Compound 552]
Plant response rating, Barnyardgrass [1]: 60
Plant response rating, Rice [2]: 10
Plant response rating, Ducksalad [3]: 100
Plant response rating, Sedge, Umbrella [4]: 0
Plant response rating, Barnyardgrass [5, 21]: 80
Plant response rating, Barnyardgrass [5, 22]: 90
Plant response rating, Corn [6, 21]: 20
Plant response rating, Corn [6, 22]: 50
Plant response rating, Blackgrass [7, 21]: 30
Plant response rating, Blackgrass [7, 22]: 70
Plant response rating, Ryegrass, Italian [8, 21]: 30
Plant response rating, Ryegrass, Italian [8, 22]: 50
Plant response rating, Wheat [9, 21]: 0
Plant response rating, Wheat [9, 22]: 40
Plant response rating, Ragweed [10, 21]: 0
Plant response rating, Ragweed [10, 22]: 20
Plant response rating, Galium [11, 21]: 40
Plant response rating, Galium [11, 22]: 60
Plant response rating, Kochia [12, 21]: 0
Plant response rating, Kochia [12, 22]: 30
Plant response rating, Foxtail, Giant [13, 21]: 70
Plant response rating, Foxtail, Giant [13, 22]: 80
Plant response rating, Pigweed [14, 21]: 0
Plant response rating, Pigweed [14, 22]: 0
Plant response rating, Barnyardgrass [15]: 90
Barnyardgrass plant response rating (0 to 100 scale, 0 is no effect, 100 is complete control) [15]: 90
Plant response rating, Ryegrass, Italian [16]: 20
Ryegrass, Italian plant response rating (0 to 100 scale, 0 is no effect, 100 is complete control) [16]: 40
Plant response rating, Ragweed [17]: 0
Ragweed plant response rating (0 to 100 scale, 0 is no effect, 100 is complete control) [17]: 60
Plant response rating, Kochia [18]: 0
Kochia plant response rating (0 to 100 scale, 0 is no effect, 100 is complete control) [18]: 70
Plant response rating, Foxtail, Giant [19]: 90
Foxtail, Giant plant response rating (0 to 100 scale, 0 is no effect, 100 is complete control) [19]: 90
Plant response rating, Pigweed [20]: 0
Pigweed plant response rating (0 to 100 scale, 0 is no effect, 100 is complete control) [20]: 0
